From PMC7403315, “Cyclic peptide FXII inhibitor provides safe anticoagulation in a thrombosis model and in artificial lungs” (Nature Communications, 2020)
Several values for one entry are separate records, joined by “and”; a condition that tells them apart may be missing. Identical values can stand only once. Starred links: 1 amine or outer side, 2 acyl side, 3 side chain; linkers in the order of their positions; H or OH if unused. Positions of bridges follow the written chain, without caps; N, C: chain ends. Non-standard residues stand in square brackets, D forms with d. Residues, ends and D or L forms follow the SMILES beside them. TATA = O=C(CC[*:1])N1CN(C(=O)CC[*:2])CN(C(=O)CC[*:3])C1; Phe(4-F) = N[C@@H](Cc1ccc(F)cc1)C(=O)O; β3hR = N=C(N)NCCC[C@H](N)CC(=O)O

Legend:
Test in all cases: Specificity profiling, residual protease activity
Format in all cases: biochemical
factor VIIa = target: T1, factor VIIa (Homo sapiens, UniProt P08709)
T1 construct: (Molecular Innovations) 0.05 nM, factor VIIa (Haematologic Technologies) 50 nM, factor Xa; purchased Haematologic Technologies
T1 sequence (P08709 213-466 limits assumed): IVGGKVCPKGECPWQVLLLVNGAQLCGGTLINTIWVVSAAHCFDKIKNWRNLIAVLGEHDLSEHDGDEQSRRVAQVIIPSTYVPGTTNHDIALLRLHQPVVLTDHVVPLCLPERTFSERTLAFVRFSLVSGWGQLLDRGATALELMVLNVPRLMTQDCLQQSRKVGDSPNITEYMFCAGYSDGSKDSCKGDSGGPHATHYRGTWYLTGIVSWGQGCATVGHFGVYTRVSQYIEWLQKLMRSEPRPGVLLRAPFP
T1 sequence (P08709 61-212 limits assumed): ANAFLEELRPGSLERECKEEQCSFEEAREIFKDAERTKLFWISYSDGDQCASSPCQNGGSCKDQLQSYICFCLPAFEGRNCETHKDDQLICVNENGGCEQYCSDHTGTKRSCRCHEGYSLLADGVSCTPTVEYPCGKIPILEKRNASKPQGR
Description: (§1) Protease inhibition assays
(§2) The inhibitory activity of peptides was determined by measuring the residual protease activity with a fluorogenic substrate. The assay was performed in buffer containing 10 mM Tris-Cl, pH […]
(§3) 1% (v/v) DMSO in a volume of 150 µl. […]
(§4) HFXIIAB) were used at final concentrations of 0.4 nM. The reaction was pipetted as follows: 50 µl of bicyclic peptide in assay buffer were added to 50 µl of FXIIa in assay buffer and incubated for 10 minutes at 25°C before 50 µl of 150 µM fluorogenic substrate in assay buffer were added to measure the residual protease activity with an Infinite M200Pro fluorescence plate reader (excitation at 368 nm, emission at 467 nm; Tecan) for a period of 30 minutes with a read every minute at 25°C. The Tecan software i-control (version 1.1) was used for data analysis. Stock solutions of 1 mM bicyclic peptide were prepared by either dissolving the unpurified cyclization reaction with water or by dissolving purified and lyophilized peptide in water. The bicyclic peptides were serially diluted two-fold using assay buffer. Sigmoidal curves were fitted to the data using the following dose response equation (1), wherein x = peptide concentration, y = % protease activity, and p = Hill slope. IC50 values were derived from the fitted curve.
(§5) The inhibition constants (Ki) were calculated according to the equation of Cheng and Prusoff, Ki = IC50/(1+([S]0/Km), wherein IC50 is the functional strength of the inhibitor, [S]0 is the total substrate concentration, and Km is the Michaelis-Menten constant. […]
(§6) For testing the specificity of the bicyclic peptides, the following final concentrations of human serine proteases were used: tPA (Molecular Innovations) 7.5 nM, uPA (Molecular Innovations) 1.5 nM, factor XIa (Innovative Research) 6 nM, plasma kallikrein (Innovative Research) 0.25 nM, thrombin (Molecular Innovations) 1 nM, plasmin (Molecular Innovations) 2.5 nM, trypsin (Molecular Innovations) 0.05 nM, factor VIIa (Haematologic Technologies) 50 nM, factor Xa […]
(§7) (Haematologic Technologies) 6 nM, and activated protein C (APC) 5 nM. Two-fold dilutions of the peptide were prepared that ranged from 0.04 to 40 µM. The following fluorogenic substrates were used at a final concentration of 50 µM: Z-Phe-Arg-AMC (Bachem) for plasma kallikrein; Boc-Phe-Ser-Arg-AMC (Bachem) for factor XIa; Z-Gly-Gly-Arg-AMC (Bachem) for tPA, uPA, thrombin, and trypsin; H-D-Val-Leu-Lys-AMC (Bachem) for plasmin; and D-Phe-Pro-Arg-ANSNH-C4H9 (Haematologic Technologies) for FVIIa and FXa. For APC, the chromogenic substrate pyroGlu-Pro-Arg-pNA (S2366) was used at a concentration of 400 µM. […]

factor XIa = target: T2, factor XIa (Homo sapiens, UniProt P03951)
T2 construct: 1.5 nM, factor XIa (Innovative Research) 6 nM, plasma kallikrein (Innovative Research) 0.25; purchased Innovative Research
T2 sequence (P03951 388-625 limits assumed): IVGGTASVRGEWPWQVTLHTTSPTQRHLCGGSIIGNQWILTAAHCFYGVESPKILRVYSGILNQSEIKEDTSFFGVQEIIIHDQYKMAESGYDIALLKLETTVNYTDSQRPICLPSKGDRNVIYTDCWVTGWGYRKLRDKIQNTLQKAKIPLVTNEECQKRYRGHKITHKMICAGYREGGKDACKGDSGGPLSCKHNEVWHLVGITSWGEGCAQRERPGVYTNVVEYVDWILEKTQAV
T2 sequence (P03951 19-387 limits assumed): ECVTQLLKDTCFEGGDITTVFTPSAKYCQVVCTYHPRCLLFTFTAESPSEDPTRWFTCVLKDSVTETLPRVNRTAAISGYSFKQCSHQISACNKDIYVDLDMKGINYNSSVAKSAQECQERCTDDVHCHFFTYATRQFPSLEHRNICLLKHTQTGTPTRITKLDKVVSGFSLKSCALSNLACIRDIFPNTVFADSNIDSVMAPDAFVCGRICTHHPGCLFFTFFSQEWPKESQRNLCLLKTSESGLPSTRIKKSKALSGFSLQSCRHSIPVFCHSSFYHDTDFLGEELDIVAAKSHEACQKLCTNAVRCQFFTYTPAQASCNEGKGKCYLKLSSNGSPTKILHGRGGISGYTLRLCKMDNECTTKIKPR
Description: as §1, §2, §3, §4, §5, §6, §7

trypsin = target: T3, trypsin (Homo sapiens, UniProt P07477)
T3 construct: purchased Molecular Innovations
Description: as §1, §2, §3, §4, §5, §6, §7

[1] = inhibitor 40000 nM (40 µM), 40 µM
[2] = inhibitor 39.0625 nM, 0.0390625 µM
[3] = inhibitor 78.125 nM, 0.078125 µM
[4] = inhibitor 156.25 nM, 0.15625 µM

In the case of `CC(C)C[C@@H]1NC(=O)[C@H](CCC(N)=O)NC(=O)[C@H](Cc2c[nH]cn2)NC(=O)[C@@H]2CSCCC(=O)N3CN(CN(C3)C(=O)CCSC[C@H](NC(=O)[C@@H](CO)NC(=O)[C@H](N)CCCNC(=N)N)C(=O)N[C@@H](Cc3ccc(F)cc3)C(=O)N[C@@H](CCCNC(=N)N)C(=O)N[C@@H](CC(C)C)C(=O)N3CCC[C@H]3C(=O)N2)C(=O)CCSC[C@@H](C(N)=O)NC(=O)C[C@H](CCCNC(=N)N)NC1=O` [FXII900] (H-[dR][dS]C[Phe(4-F)]RLPCHQL[β3hR]C-NH2; linker 3-8-13 via TATA), the “Residual activity of FVIIa” value (factor VIIa; inhibitor 5000 nM, 5 µM) is reported as 109.299%, the remaining activity at 5 µM (factor VIIa; inhibitor 5000 nM, read-out: Residual activity of FVIIa) is reported as 108% and the “Residual activity of FVIIa” value (factor VIIa; inhibitor 10000 nM, 10 µM) is reported as 109.026%. The remaining activity at 10 µM (factor VIIa; inhibitor 10000 nM, read-out: Residual activity of FVIIa) was 107%, the “Residual activity of FVIIa” value (factor VIIa; inhibitor 20000 nM, 20 µM) was 101.426% and the remaining activity at 20 µM (factor VIIa; inhibitor 20000 nM, read-out: Residual activity of FVIIa) was 101%. The “Residual activity of FVIIa” value (factor VIIa; [1]) was 102.615% and 96.13%, the remaining activity at 40 µM (factor VIIa; inhibitor 40000 nM (40 µM), read-out: Residual activity of FVIIa) was 97.1% and the Ki (factor VIIa; read-out: Ki FVIIa) was greater than 40 µM. For the same compound, the “Residual activity of FXIa” value (factor XIa; [2]) was 100.642%, the remaining activity at 0.0390625 µM (factor XIa; inhibitor 39.0625 nM, read-out: Residual activity of FXIa) was 96.6% and the “Residual activity of FXIa” value (factor XIa; [3]) was 103.852%. The remaining activity at 0.078125 µM (factor XIa; inhibitor 78.125 nM, read-out: Residual activity of FXIa) was 93.8%, the “Residual activity of FXIa” value (factor XIa; [4]) was 98.179% and the remaining activity at 0.15625 µM (factor XIa; inhibitor 156.25 nM, read-out: Residual activity of FXIa) was 94.7%. The “Residual activity of FXIa” value (factor XIa; inhibitor 312.5 nM, 0.3125 µM) was 98.2463%, the remaining activity at 0.3125 µM (factor XIa; inhibitor 312.5 nM, read-out: Residual activity of FXIa) was 97.5% and the “Residual activity of FXIa” value (factor XIa; inhibitor 625 nM, 0.625 µM) was 97.4314%. For the same compound, the remaining activity at 0.625 µM (factor XIa; inhibitor 625 nM, read-out: Residual activity of FXIa) was 94.9%, the “Residual activity of FXIa” value (factor XIa; inhibitor 1250 nM, 1.25 µM) was 98.4364% and the remaining activity at 1.25 µM (factor XIa; inhibitor 1250 nM, read-out: Residual activity of FXIa) was 94.1%. The “Residual activity of FXIa” value (factor XIa; inhibitor 2500 nM, […]) was 98.6547%, the remaining activity at […] (factor XIa; inhibitor 2500 nM, read-out: Residual activity of FXIa) was 91.5% and the “Residual activity of FXIa” value (factor XIa; inhibitor 5000 nM, 5 µM) was 98.6945%. The remaining activity at 5 µM (factor XIa; inhibitor 5000 nM, read-out: Residual activity of FXIa) was 98.9%, the “Residual activity of FXIa” value (factor XIa; inhibitor 10000 nM, 10 µM) was 99.1545% and the remaining activity at 10 µM (factor XIa; inhibitor 10000 nM, read-out: Residual activity of FXIa) was 97.3%. For the same compound, the “Residual activity of FXIa” value (factor XIa; inhibitor 20000 nM, 20 µM) was 95.8964%, the remaining activity at 20 µM (factor XIa; inhibitor 20000 nM, read-out: Residual activity of FXIa) was 96.3% and the “Residual activity of FXIa” value (factor XIa; [1]) was 95.5908% and 94.7249%. The remaining activity at 40 µM (factor XIa; inhibitor 40000 nM (40 µM), read-out: Residual activity of FXIa) was 95.1%, the Ki (factor XIa; read-out: Ki FXIa) was greater than 40 µM and the Ki (trypsin) was 1.46 µM. The remaining activity at 0.0390625 µM (trypsin; inhibitor 39.0625 nM) was 99%, the “Residual activity of Trypsin” value (trypsin; [2]) was 98.1138% and the remaining activity at 0.078125 µM (trypsin; inhibitor 78.125 nM) was 100%. The “Residual activity of Trypsin” value (trypsin; [3]) was 99.9393%, the remaining activity at 0.15625 µM (trypsin; inhibitor 156.25 nM) was 91.6% and the “Residual activity of Trypsin” value (trypsin; [4]) was 92.2203%. For the same compound, the remaining activity at 0.3125 µM (trypsin; inhibitor 312.5 nM) was 86%, the “Residual activity of Trypsin” value (trypsin; inhibitor 312.5 nM, 0.3125 µM) was 88.4651% and the remaining activity at 0.625 µM (trypsin; inhibitor 625 nM) was 77.9%. For the same compound, the “Residual activity of Trypsin” value (trypsin; inhibitor 625 nM, 0.625 µM) was 73.7094%, the remaining activity at 1.25 µM (trypsin; inhibitor 1250 nM) was 64% and the “Residual activity of Trypsin” value (trypsin; inhibitor 1250 nM, 1.25 µM) was 61.5181%. The remaining activity at […] (trypsin; inhibitor 2500 nM) was 47.5%, the “Residual activity of Trypsin” value (trypsin; inhibitor 2500 nM, […]) was 46.5602% and the remaining activity at 5 µM (trypsin; inhibitor 5000 nM) was 34.6%. The “Residual activity of Trypsin” value (trypsin; inhibitor 5000 nM, 5 µM) was 30.2825%, the remaining activity at 10 µM (trypsin; inhibitor 10000 nM) was 21% and the “Residual activity of Trypsin” value (trypsin; inhibitor 10000 nM, 10 µM) was 19.2935%. For the same compound, the remaining activity at 20 µM (trypsin; inhibitor 20000 nM) was 12.9%, the “Residual activity of Trypsin” value (trypsin; inhibitor 20000 nM, 20 µM) was 12.2739% and the remaining activity at 40 µM (trypsin; inhibitor 40000 nM (40 µM)) was 9.2%. For the same compound, the “Residual activity of Trypsin” value (trypsin; [1]) was 9.912% and 8.397%.
